# Test results taken from US10238631B2, “Sesquiterpene derivatives and their use in inflammation or cancer treatment” (Academia Sinica, priority 2014, dated 2019).
# Tested on: TS/A (ER+, Her2−) murine mammary cancer cells
# Test: MTT cell viability assay, TS/A cells
# Assay type: cell-based
# Conditions: Mus musculus, 24 h, read-out: IC50 on cell viability, TS/A (ER+, Her2−)
# Experimental: (§1) Normal or cancer cells (2×10^3 to 1×10^4 cells/well) were seeded in 96-well plate for overnight and treated with different compounds for 24 h to 72 h. Cells growth were determined by MTT-based colorimetric assays according to. Viability of the test cells treated with vehicle (0.5% DMSO) only was defined as 100% viable. Survival of cells after treatment with DETDs was calculated using the following formula: viable cell number (%)=OD570 (treated cell culture)/OD570 (vehicle control)×100.
# (§2) Sixty DETDs were derived from parental compound […] and tested for anti-breast cancer cell activity.
row,SMILES,IC50 [µM]
1,C=C1C(=O)OC2CC3=C[C@@H](C/C(C)=C/C(OC(=O)/C=C/c4cccc(OCC)c4)[C@H]12)OC3=O (stereo partly drawn) [DETD-50],4.4
2,C=C1C(=O)OC2CC3=C[C@@H](C/C(C)=C/C(OC(=O)/C=C/c4cccs4)[C@H]12)OC3=O (stereo partly drawn) [DETD-42],2.7

# Tested on: MDA-MB-231 (ER−, PR−, Her2−) human breast cancer cells
# Test: MTT cell viability assay, MDA-MB-231 cells
# Assay type: cell-based
# Conditions: Homo sapiens, MDA-MB-231, 24 h, read-out: IC50 on cell viability, MDA-MB-231 (ER−, PR−, Her2−)
# Experimental: as §1, §2
row,SMILES,IC50 [µM]
1,C=C1C(=O)OC2CC3=C[C@@H](C/C(C)=C/C(OC(=O)/C=C/c4cccc(OCC)c4)[C@H]12)OC3=O (stereo partly drawn) [DETD-50],7.7
2,C=C1C(=O)OC2CC3=C[C@@H](C/C(C)=C/C(OC(=O)/C=C/c4cccs4)[C@H]12)OC3=O (stereo partly drawn) [DETD-42],6

# Tested on: MCF-7 (ER+, Her2−) human breast cancer cells
# Test: MTT cell viability assay, MCF-7 cells
# Assay type: cell-based
# Conditions: MCF7, 24 h, read-out: IC50 on cell viability, MCF-7 (ER+, Her2−)
# Experimental: as §1, §2
row,SMILES,IC50 [µM]
1,C=C1C(=O)OC2CC3=C[C@@H](C/C(C)=C/C(OC(=O)/C=C/c4cccc(OCC)c4)[C@H]12)OC3=O (stereo partly drawn) [DETD-50],> 7.5
2,C=C1C(=O)OC2CC3=C[C@@H](C/C(C)=C/C(OC(=O)/C=C/c4cccs4)[C@H]12)OC3=O (stereo partly drawn) [DETD-42],4.5

# Tested on: M10 normal mammary epithelial cells
# Test: MTT cell viability assay, M10 normal cells
# Assay type: cell-based, human
# Conditions: Homo sapiens, Epithelial cell, 24 h
# Experimental: as §1, §2
row,SMILES,IC50 [µM]
1,C=C1C(=O)OC2CC3=C[C@@H](C/C(C)=C/C(OC(=O)/C=C/c4cccc(OCC)c4)[C@H]12)OC3=O (stereo partly drawn) [DETD-50],> 7.5
2,C=C1C(=O)OC2CC3=C[C@@H](C/C(C)=C/C(OC(=O)/C=C/c4cccs4)[C@H]12)OC3=O (stereo partly drawn) [DETD-42],> 7.5

# Tested on: B16-F10 (NRAS mutation)
# Test: MTT cell viability assay, B16-F10 melanoma
# Assay type: cell-based
# Conditions: Mus musculus, B16-F10, 24 h, 24 h, read-out: IC50 on cell viability, B16-F10 (NRAS mutation)
# Experimental: as §1
# (§3) Several genes are involved in melanoma development and pathology; specifically, mutation in V-raf murine sarcoma viral oncogene homolog B1 (B-RAF) occurs approximately 50-60% and in neuroblastoma RAS viral oncogene homolog (N-RAS) occurs about 30% of malignant melanomas. A spectrum of wild-type or mutated melanoma cell lines including B16-F10, MeWo, A375, A2058, HTB-68, and melanocyte were used to study anti-melanoma cell proliferation activity of parental phytocompound DET and newly synthesized DETDs.
row,SMILES,IC50 [µM]
1,C=C1C(=O)OC2CC3=C[C@@H](C/C(C)=C/C(OC(=O)/C=C/c4cccc(OCC)c4)[C@H]12)OC3=O (stereo partly drawn) [DETD-50],9.4

# Same assay, conditions: Mus musculus, B16-F10, 24 h, read-out: IC50 on cell viability, B16-F10 (NRAS mutation)
row,SMILES,IC50 [µM]
1,C=C1C(=O)OC2CC3=C[C@@H](C/C(C)=C/C(OC(=O)/C=C/c4cccs4)[C@H]12)OC3=O (stereo partly drawn) [DETD-42],5.5

# Tested on: MeWo (No NRAS or BRAF mutation)
# Test: MTT cell viability assay, MeWo melanoma
# Assay type: cell-based, human
# Conditions: Homo sapiens, MeWo, 24 h
# Experimental: as §1, §3
row,SMILES,IC50 [µM]
1,C=C1C(=O)OC2CC3=C[C@@H](C/C(C)=C/C(OC(=O)/C=C/c4cccc(OCC)c4)[C@H]12)OC3=O (stereo partly drawn) [DETD-50],9.3
2,C=C1C(=O)OC2CC3=C[C@@H](C/C(C)=C/C(OC(=O)/C=C/c4cccs4)[C@H]12)OC3=O (stereo partly drawn) [DETD-42],> 10

# Tested on: HTB-68 (NRAS mutation)
# Test: MTT cell viability assay, HTB-68 melanoma
# Assay type: cell-based, human
# Conditions: Homo sapiens, 24 h
# Experimental: as §1, §3
row,SMILES,IC50 [µM]
1,C=C1C(=O)OC2CC3=C[C@@H](C/C(C)=C/C(OC(=O)/C=C/c4cccc(OCC)c4)[C@H]12)OC3=O (stereo partly drawn) [DETD-50],> 10
2,C=C1C(=O)OC2CC3=C[C@@H](C/C(C)=C/C(OC(=O)/C=C/c4cccs4)[C@H]12)OC3=O (stereo partly drawn) [DETD-42],> 10

# Tested on: A2058 (BRAF mutation)
# Test: MTT cell viability assay, A2058 melanoma
# Assay type: cell-based, human
# Conditions: Homo sapiens, A2058, 24 h
# Experimental: as §1, §3
row,SMILES,IC50 [µM]
1,C=C1C(=O)OC2CC3=C[C@@H](C/C(C)=C/C(OC(=O)/C=C/c4cccc(OCC)c4)[C@H]12)OC3=O (stereo partly drawn) [DETD-50],8.7
2,C=C1C(=O)OC2CC3=C[C@@H](C/C(C)=C/C(OC(=O)/C=C/c4cccs4)[C@H]12)OC3=O (stereo partly drawn) [DETD-42],> 10

# Tested on: A375 (BRAF mutation)
# Test: MTT cell viability assay, A375 melanoma
# Assay type: cell-based, human
# Conditions: Homo sapiens, A-375, 24 h, 24 h, MTT; read-out: IC50 on cell viability, A375 (BRAF mutation)
# Experimental: as §1, §3
# To investigate whether or not DETD-35 show synergism with PLX4032 against A375 melanoma cells, we performed anti-proliferation assay using MTT reagent to obtain IC50 of each compound. […] The synergistic effect was quantified by combination index (CI) analysis as stated above.
row,SMILES,IC50 [µM]
1,C=C1C(=O)OC2CC3=C[C@@H](C/C(C)=C/C(OC(=O)/C=C/c4cccc(OCC)c4)[C@H]12)OC3=O (stereo partly drawn) [DETD-50],4.6

# Same assay, conditions: Homo sapiens, A-375, 24 h, read-out: IC50 on cell viability, A375 (BRAF mutation)
row,SMILES,IC50 [µM]
1,C=C1C(=O)OC2CC3=C[C@@H](C/C(C)=C/C(OC(=O)/C=C/c4cccs4)[C@H]12)OC3=O (stereo partly drawn) [DETD-42],> 10

# Tested on: Melanocyte (Normal cells)
# Test: MTT cell viability assay, normal melanocytes
# Assay type: cell-based, human
# Conditions: Homo sapiens, Melanocyte, 24 h
# Experimental: as §1, §3
row,SMILES,IC50 [µM]
1,C=C1C(=O)OC2CC3=C[C@@H](C/C(C)=C/C(OC(=O)/C=C/c4cccc(OCC)c4)[C@H]12)OC3=O (stereo partly drawn) [DETD-50],> 10
2,C=C1C(=O)OC2CC3=C[C@@H](C/C(C)=C/C(OC(=O)/C=C/c4cccs4)[C@H]12)OC3=O (stereo partly drawn) [DETD-42],> 10

# Tested on: RAW264.7 (normal macrophage)
# Test: MTT cell viability assay, RAW264.7 macrophages
# Assay type: cell-based, mouse
# Conditions: Mus musculus, RAW264.7, 24 h
# Experimental: as §1
# (§4) Marcophages (2×10^5 cells/well in 96-well plate) were treated with compounds for 1 h, then incubated further for 24 h with or without the presence of […] LPS in the cultural medium. Nitrite levels in cell culture medium were determined by the Griess reaction method. In parallel to the Griess assays, macrophage cell viabilities were determined using the MTT based colorimetric assay.
row,SMILES,IC50 [µM]
1,C=C1C(=O)OC2CC3=C[C@@H](C/C(C)=C/C(OC(=O)/C=C/c4cccc(OCC)c4)[C@H]12)OC3=O (stereo partly drawn) [DETD-50],> 10
2,C=C1C(=O)OC2CC3=C[C@@H](C/C(C)=C/C(OC(=O)/C=C/c4cccs4)[C@H]12)OC3=O (stereo partly drawn) [DETD-42],> 10

# Tested on: LPS-induced nitric oxide (NO) production in RAW 264.7 cells
# Test: Nitric oxide production in LPS-stimulated macrophages (Griess)
# Assay type: cell-based, mouse
# Conditions: Mus musculus; LPS-stimulated RAW264.7, nitrite 24 h after LPS
# Experimental: as §4
# LPS from the outer membrane of Gram-negative bacteria can induce mRNA or protein levels of inducible nitric oxide synthase (iNOS), which catalyzes oxidative deamination of L-arginine to produce nitric oxide (NO). Once NO is predominantly produced, it interacts with superoxide anion and generates highly reactive oxidants resulting in cellular inflammation, DNA, protein and tissue damages, carcinogenesis, and antiapoptosis. We used in vitro LPS stimulated inflammation in RAW264.7 cell system to evaluate the effect of DET and its derivatives DETDs on NO production by determination of nitrite level (equivalent to NO level) in culture medium 24 h after LPS treatment.
row,SMILES,IC50 [µM]
1,C=C1C(=O)OC2CC3=C[C@@H](C/C(C)=C/C(OC(=O)/C=C/c4cccc(OCC)c4)[C@H]12)OC3=O (stereo partly drawn) [DETD-50],> 10
2,C=C1C(=O)OC2CC3=C[C@@H](C/C(C)=C/C(OC(=O)/C=C/c4cccs4)[C@H]12)OC3=O (stereo partly drawn) [DETD-42],2.9
